Laboratory results from ChEMBL document CHEMBL4376833, “Influence of Non-natural Cationic Amino Acids on the Biological Activity Profile of Innate Defense Regulator Peptides” (J Med Chem, 2019).
pIC50: −log10 of the molar value. In brackets after ≈: the same amount, converted by molar mass. Activity calls are given as the source filed them. Unless noted, the rule behind the calls is not given here. Non-standard residues stand in square brackets, D forms with d. Residues, ends and D or L forms follow the SMILES beside them. Orn = NCCC[C@H](N)C(=O)O; Dap = NC[C@H](N)C(=O)O

Assays:
Staphylococcus aureus [1] = experiment: Antibiofilm activity against methicillin-resistant Staphylococcus aureus assessed as inhibition of biofilm formation incubated for overnight by crystal violet staining based microtiter plate assay; format: functional, organism-based
Staphylococcus aureus [2] = experiment: Antibacterial activity against methicillin-resistant Staphylococcus aureus assessed as bacterial growth inhibition in MHB medium measured after overnight incubation by CLSI protocol based broth dilution method; format: functional
[3] = Stability of compound assessed as bovine trypsin-mediated compound hydrolysis at 10 uM incubated for 30 mins by RP-HPLC analysis; format: ADME, Bos taurus; details: cattle, read-out: Drug degradation
PBMC [4] = experiment: Cytotoxicity against human PBMC assessed as decrease in cell viability at 10 to 40 uM incubated for overnight by LDH assay; format: cell-based
PBMC [5] = experiment: Immunostimulatory activity in human PBMC assessed as induction of chemokine MCP1 production at 10 to 40 uM incubated for overnight by ELISA; format: functional, cell-based
PBMC [6] = experiment: Proinflammatory activity in human PBMC assessed as increase in LPS-stimulated IL1 production at 40 uM incubated for overnight in presence of Pseudomonas aeruginosa PAO1 LPS by ELISA relative to control; format: cell-based
[7] = Binding affinity to SDS micelle assessed as blue shift with maximum emission at wavelength between 339 to 344 nm at 1 uM in TRIS buffer at pH 7.4 measured after 24 hrs by Trp emission fluorescence spectroscopy
[8] = Binding affinity to SDS micelle assessed as increase in fluorescence emission intensity at maximum wavelength at 1 uM in TRIS buffer at pH 7.4 measured after 24 hrs by Trp emission fluorescence spectroscopy relative to TRIS buffer
[9] = Binding affinity to DPC micelle assessed as increase in fluorescence emission intensity at maximum wavelength at 1 uM in TRIS buffer at pH 7.4 measured after 24 hrs by Trp emission fluorescence spectroscopy relative to TRIS buffer
Staphylococcus aureus [10] = experiment: Antibacterial activity against methicillin-resistant Staphylococcus aureus assessed as bacterial growth inhibition in TSB medium supplemented with 1% glucose measured after overnight incubation by CLSI protocol based broth dilution method; format: functional, organism-based
Staphylococcus aureus [11] = experiment: Antibacterial activity against methicillin-resistant Staphylococcus aureus assessed as alteration in bacterial growth in TSB medium supplemented with 1% glucose at concentration of MIC in MHB medium measured after overnight incubation by CLSI protocol based broth dilution method; format: functional, organism-based
Staphylococcus aureus [12] = experiment: Antibacterial activity against methicillin-resistant Staphylococcus aureus assessed as alteration in bacterial growth in TSB medium supplemented with 1% glucose up to 64 uM measured after overnight incubation by CLSI protocol based broth dilution method; format: functional, organism-based
[13] = Binding affinity to DPC micelle assessed as blue shift with maximum fluorescence emission at 1 uM in TRIS buffer at pH 7.4 measured after 24 hrs by Trp emission fluorescence spectroscopy
PBMC [14] = experiment: Proinflammatory activity in human PBMC assessed as increase in LPS-stimulated IL1 production at 40 uM incubated for overnight in presence nof Pseudomonas aeruginosa PAO1 LPS by ELISA; format: cell-based
[15] = Binding affinity to DPC micelle assessed as blue shift with maximum emission at wavelength of 352 nm at 1 uM in TRIS buffer at pH 7.4 measured after 24 hrs by Trp emission fluorescence spectroscopy
PBMC [16] = experiment: Cytotoxicity against human PBMC assessed as decrease in cell viability at 40 uM incubated for overnight by LDH assay relative to control; format: cell-based
[17] = Binding affinity to DPC micelle assessed as blue shift with maximum emission at wavelength of 340 nm at 1 uM in TRIS buffer at pH 7.4 measured after 24 hrs by Trp emission fluorescence spectroscopy
Staphylococcus aureus [18] = experiment: Antibiofilm activity against methicillin-resistant Staphylococcus aureus assessed as inhibition of biofilm formation by measuring residual biofilm growth incubated for overnight at 10-fold dilution by crystal violet staining based microtiter plate assay relative to control; format: functional
Staphylococcus aureus [19] = experiment: Antibacterial activity against methicillin-resistant Staphylococcus aureus assessed as alteration in bacterial growth incubated for overnight by microtiter plate based spectrophotometric analysis; format: functional, organism-based

## CC[C@H](C)[C@H](NC(=O)[C@H](CN)NC(=O)[C@@H](NC(=O)[C@H](C)NC(=O)[C@@H](NC(=O)[C@@H](NC(=O)[C@H](CC(C)C)NC(=O)[C@H](CN)NC(=O)[C@@H](N)C(C)C)[C@@H](C)CC)C(C)C)C(C)C)C(=O)N[C@@H](Cc1c[nH]c2ccccc12)C(=O)N[C@@H](CN)C(=O)N[C@@H](CN)C(N)=O (H-V[Dap]LIVAV[Dap]IW[Dap][Dap]-NH2)
Staphylococcus aureus [1]
  pIC50: 4.89
Staphylococcus aureus [2]
  MIC: 4 µM (≈ 5.02 µg/mL)
[3]
  metabolised at 0.5 h, 10 µM: 30%
PBMC [4]
  Activity: Non-Toxic
PBMC [5]
  Activity: Active
PBMC [6]
  fold change (FC): 4 to 8
[7]
  Activity: Active
[8]
  Activity: inactive
[9]
  fold change (FC): 2 to 6
Staphylococcus aureus [10]
  inhibition: inactive
Staphylococcus aureus [11]
  Activity: Active
Staphylococcus aureus [12]
  Activity: Active
[13]
  Activity: Active

## CC[C@H](C)[C@H](NC(=O)[C@H](CCCN)NC(=O)[C@@H](NC(=O)[C@H](C)NC(=O)[C@@H](NC(=O)[C@@H](NC(=O)[C@H](CC(C)C)NC(=O)[C@H](CCCN)NC(=O)[C@@H](N)C(C)C)[C@@H](C)CC)C(C)C)C(C)C)C(=O)N[C@@H](Cc1c[nH]c2ccccc12)C(=O)N[C@@H](CCCN)C(=O)N[C@@H](CCCN)C(N)=O (H-V[Orn]LIVAV[Orn]IW[Orn][Orn]-NH2)
Staphylococcus aureus [1]
  pIC50: 4.49
Staphylococcus aureus [2]
  MIC: 8 µM (≈ 10.9 µg/mL)
PBMC [4]
  Activity: Non-Toxic
PBMC [5]
  Activity: Active
PBMC [14]
  Activity: Toxic
[7]
  Activity: Active
[8]
  Activity: inactive
[9]
  fold change (FC): 2 to 6
Staphylococcus aureus [10]
  inhibition: inactive
Staphylococcus aureus [11]
  Activity: Active
Staphylococcus aureus [12]
  Activity: Active
[13]
  Activity: Active

## CC[C@H](C)[C@H](NC(=O)[C@H](CCCN)NC(=O)[C@@H](NC(=O)[C@H](CCCN)NC(=O)[C@@H](NC(=O)[C@@H](NC(=O)[C@H](CC(C)C)NC(=O)[C@H](CCCN)NC(=O)[C@@H](N)C(C)C)[C@@H](C)CC)C(C)C)C(C)C)C(=O)N[C@@H](Cc1c[nH]c2ccccc12)C(=O)N[C@@H](CCCN)C(=O)N[C@@H](CCCN)C(N)=O (H-V[Orn]LIV[Orn]V[Orn]IW[Orn][Orn]-NH2)
Staphylococcus aureus [1]
  pIC50: 4.49
Staphylococcus aureus [2]
  MIC: 32 µM (≈ 45.1 µg/mL)
[3]
  metabolised at 0.5 h, 10 µM: 60%
PBMC [4]
  Activity: Non-Toxic
PBMC [5]
  Activity: Active
PBMC [14]
  Activity: Toxic
[7]
  Activity: Active
[8]
  Activity: inactive
[9]
  fold change (FC): 2 to 6
Staphylococcus aureus [10]
  inhibition: inactive
Staphylococcus aureus [11]
  Activity: Active
Staphylococcus aureus [12]
  Activity: Active
[15]
  Activity: Active
[13]
  Activity: Active

## H-VKLIVAVKIWKK-NH2
Staphylococcus aureus [1]
  pIC50: 4.90
Staphylococcus aureus [2]
  MIC: 4 µM
[3]
  metabolised at 0.5 h, 10 µM: 5%
PBMC [4]
  Activity: Non-Toxic
PBMC [5]
  Activity: Active
PBMC [14]
  Activity: Toxic
[7]
  Activity: Active
[8]
  Activity: inactive
[9]
  fold change (FC): 2 to 6
Staphylococcus aureus [10]
  inhibition: inactive
Staphylococcus aureus [11]
  Activity: Active
Staphylococcus aureus [12]
  Activity: Active
[13]
  Activity: Active

## H-VKLIVKVKIWKK-NH2
Staphylococcus aureus [1]
  pIC50: 5.00
Staphylococcus aureus [2]
  MIC: 4 µM
[3]
  metabolised at 0.5 h, 10 µM: 18%
PBMC [16]
  Activity: 40%
PBMC [5]
  Activity: Active
PBMC [6]
  fold change (FC): 4 to 8
[7]
  Activity: Active
[8]
  fold change (FC): 2.5
[9]
  fold change (FC): 2 to 6
Staphylococcus aureus [10]
  inhibition: inactive
Staphylococcus aureus [11]
  Activity: Active
Staphylococcus aureus [12]
  Activity: Active
[13]
  Activity: Active

## H-VRLIVAVRIWRR-NH2
Staphylococcus aureus [1]
  pIC50: 5.22 to 5.40
  inhibition: Dose-dependent effect
Staphylococcus aureus [2]
  MIC: 4 µM
[3]
  metabolised at 0.5 h, 10 µM: 60%
PBMC [5]
  Activity: inactive
[7]
  Activity: Active
[17]
  Activity: Active
Staphylococcus aureus [18]
  residual biofilm growth (% of control): 8.5%
Staphylococcus aureus [10]
  inhibition: inactive
Staphylococcus aureus [11]
  Activity: Active
Staphylococcus aureus [12]
  Activity: Active
[13]
  Activity: Active
Staphylococcus aureus [19]
  Activity: Active
